target: Tyrosine-protein kinase BTK (Homo sapiens, UniProt Q06187); assay: Inhibition of BTK (unknown origin) by Omnia continuous read kinase assay
Sequence (Q06187 whole entry): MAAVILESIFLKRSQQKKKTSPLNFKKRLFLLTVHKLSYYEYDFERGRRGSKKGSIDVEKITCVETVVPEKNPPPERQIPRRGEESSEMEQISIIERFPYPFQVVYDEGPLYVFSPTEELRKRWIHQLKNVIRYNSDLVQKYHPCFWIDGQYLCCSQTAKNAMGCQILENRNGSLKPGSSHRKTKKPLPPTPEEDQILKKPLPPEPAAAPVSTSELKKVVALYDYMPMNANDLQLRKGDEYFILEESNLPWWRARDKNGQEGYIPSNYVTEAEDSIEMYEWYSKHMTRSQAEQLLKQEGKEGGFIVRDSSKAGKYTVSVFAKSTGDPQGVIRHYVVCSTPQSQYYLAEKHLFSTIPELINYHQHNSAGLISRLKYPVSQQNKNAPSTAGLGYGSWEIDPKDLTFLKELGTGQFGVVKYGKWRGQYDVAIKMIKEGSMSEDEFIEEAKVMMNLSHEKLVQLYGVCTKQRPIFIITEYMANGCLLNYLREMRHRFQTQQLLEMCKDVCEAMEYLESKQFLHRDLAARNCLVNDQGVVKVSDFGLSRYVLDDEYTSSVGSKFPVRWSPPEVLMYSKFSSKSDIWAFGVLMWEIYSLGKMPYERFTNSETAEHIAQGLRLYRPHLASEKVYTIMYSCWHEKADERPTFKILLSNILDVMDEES

Point of comparison: `COCCOc1ccc(Nc2ncc(F)c(Nc3cccc(NC(=O)C(O)CO)c3)n2)cc1` (stereo unspecified), IC50 101 nM. Against it:
- C=CC(=O)Nc1cccc(Nc2nc(Nc3ccc(OCCO)cc3)ncc2F)c1 — lower, < 10 nM
- C=CC(=O)Nc1cccc(Nc2nc(Nc3ccc(O)cc3)ncc2F)c1 — lower, < 10 nM
- COCCOc1ccc(Nc2ncc(F)c(Nc3cccc(NC(=O)C4CO4)c3)n2)cc1 (stereo unspecified) — lower, < 10 nM
- C=CC(=O)Nc1cccc(N(C)c2nc(Nc3ccc(OCCO)cc3)ncc2F)c1 — lower, < 10 nM
- C=CC(=O)Nc1cccc(Nc2nc(N(C)c3ccc(OCCO)cc3)ncc2F)c1 — the same, 101 nM

Source: ChEMBL document CHEMBL3351331, “Novel Disubstituted Pyrimidines as Inhibitors of Bruton's Tyrosine Kinase” (ACS Med Chem Lett, 2015)
